The NIST ThermoML archive (doi:10.1016/j.jct.2009.06.007)
± gives the expanded uncertainty stated by the source.

How the values were obtained:
[1] = refractive index (Na D-line) (dimensionless); xn = mol fraction of the nth substance listed; details: 298.15 K, 101 kPa, Liquid, Standard Abbe refractometry
[2] = xn = mol fraction of the nth substance listed; details: 298.15 K, 101 kPa, Liquid; for viscosity: Capillary tube (Ostwald / Ubbelohde) method; for mass density: Vibrating tube method
[3] = 298.15 K, 101.33 kPa, Liquid

COC(C)=O [methyl ethanoate] + CO
Details	mass density, [2] [kg/m3]	refractive index, [1]	viscosity, [2] [mPa·s]
x1 = 0.0939	810.62 ± 0.15	1.3322 ± 0.00068	0.491 ± 0.006
x1 = 0.1986	833.17 ± 0.14	1.33757 ± 0.00068	0.452 ± 0.006
x1 = 0.3009	851.78 ± 0.12	1.34192 ± 0.00068	0.417 ± 0.005
x1 = 0.4016	867.5 ± 0.12	1.3456 ± 0.00068	0.393 ± 0.005
x1 = 0.4943	880.02 ± 0.11	1.34851 ± 0.00068	0.378 ± 0.005
x1 = 0.5851	890.77 ± 0.1	1.35095 ± 0.00068	0.369 ± 0.005
x1 = 0.6941	902.17 ± 0.1	1.35349 ± 0.00068	0.361 ± 0.004
x1 = 0.7694	909.19 ± 0.09	1.35503 ± 0.00068	0.358 ± 0.004
x1 = 0.8875	918.93 ± 0.09	1.35712 ± 0.00068	0.358 ± 0.004

CCCCCCCCn1cc[n+](C)c1.O=S(=O)([N-]S(=O)(=O)C(F)(F)F)C(F)(F)F + CO
Details	mass density, [2] [kg/m3]	refractive index, [1]	viscosity, [2] [mPa·s]
x2 = 0.0654	1316.5 ± 0.47	1.43207 ± 0.0007	78.34 ± 2.3
x2 = 0.0863	1315.1 ± 0.46	1.43188 ± 0.0007	74.57 ± 2.1
x2 = 0.2134	1305.18 ± 0.39	1.42995 ± 0.0007	53.65 ± 1.3
x2 = 0.3138	1295.08 ± 0.34	1.42809 ± 0.0007	40.77 ± 0.9
x2 = 0.3873	1285.91 ± 0.31	1.42619 ± 0.0007	32.92 ± 0.68
x2 = 0.5038	1267.04 ± 0.27	1.42266 ± 0.0007	22.27 ± 0.41
x2 = 0.6155	1240.79 ± 0.24	1.41741 ± 0.0007	14.57 ± 0.24
x2 = 0.7018	1210.98 ± 0.26	1.41157 ± 0.00071	9.493 ± 0.14
x2 = 0.805	1154.04 ± 0.34	1.40017 ± 0.00071	4.919 ± 0.07
x2 = 0.902	1052.54 ± 0.43	1.38017 ± 0.00071	2.144 ± 0.03

CCCCCCCCn1cc[n+](C)c1.O=S(=O)([N-]S(=O)(=O)C(F)(F)F)C(F)(F)F + COC(C)=O
Details	mass density, [2] [kg/m3]	refractive index, [1]	viscosity, [2] [mPa·s]
x2 = 0.0699	1314.77 ± 0.47	1.4319 ± 0.0007	75.62 ± 2.1
x2 = 0.1317	1308.87 ± 0.43	1.43089 ± 0.0007	63.25 ± 1.6
x2 = 0.1748	1304.45 ± 0.41	1.43009 ± 0.0007	56.12 ± 1.4
x2 = 0.2177	1299.57 ± 0.38	1.42927 ± 0.0007	49.13 ± 1.2
x2 = 0.3226	1285.83 ± 0.33	1.42694 ± 0.00069	33.76 ± 0.7
x2 = 0.4105	1271.88 ± 0.3	1.42453 ± 0.00069	23.79 ± 0.44
x2 = 0.5011	1253.68 ± 0.27	1.42124 ± 0.00069	15.98 ± 0.27
x2 = 0.6001	1228.33 ± 0.24	1.41684 ± 0.00068	9.815 ± 0.15
x2 = 0.6992	1193.95 ± 0.24	1.41055 ± 0.00068	5.527 ± 0.079
x2 = 0.7872	1151.29 ± 0.29	1.40296 ± 0.00068	3.066 ± 0.042
x2 = 0.8984	1067.39 ± 0.32	1.387 ± 0.00068	1.206 ± 0.017

CCCCCCCCn1cc[n+](C)c1.O=S(=O)([N-]S(=O)(=O)C(F)(F)F)C(F)(F)F
[3]
Details	mass density [kg/m3]	viscosity [mPa·s]
Capillary tube (Ostwald / Ubbelohde) method	–	92.51 ± 1.5
Pycnometric method	1320.59 ± 1.3	–
